The target of one test is T1, human TLR7 (Homo sapiens, UniProt Q9NYK1).
T1 construct: host or cells: HEK-Blue hTLR7 (HEK293-derived reporter cells)
T1 sequence (Q9NYK1 27-1049): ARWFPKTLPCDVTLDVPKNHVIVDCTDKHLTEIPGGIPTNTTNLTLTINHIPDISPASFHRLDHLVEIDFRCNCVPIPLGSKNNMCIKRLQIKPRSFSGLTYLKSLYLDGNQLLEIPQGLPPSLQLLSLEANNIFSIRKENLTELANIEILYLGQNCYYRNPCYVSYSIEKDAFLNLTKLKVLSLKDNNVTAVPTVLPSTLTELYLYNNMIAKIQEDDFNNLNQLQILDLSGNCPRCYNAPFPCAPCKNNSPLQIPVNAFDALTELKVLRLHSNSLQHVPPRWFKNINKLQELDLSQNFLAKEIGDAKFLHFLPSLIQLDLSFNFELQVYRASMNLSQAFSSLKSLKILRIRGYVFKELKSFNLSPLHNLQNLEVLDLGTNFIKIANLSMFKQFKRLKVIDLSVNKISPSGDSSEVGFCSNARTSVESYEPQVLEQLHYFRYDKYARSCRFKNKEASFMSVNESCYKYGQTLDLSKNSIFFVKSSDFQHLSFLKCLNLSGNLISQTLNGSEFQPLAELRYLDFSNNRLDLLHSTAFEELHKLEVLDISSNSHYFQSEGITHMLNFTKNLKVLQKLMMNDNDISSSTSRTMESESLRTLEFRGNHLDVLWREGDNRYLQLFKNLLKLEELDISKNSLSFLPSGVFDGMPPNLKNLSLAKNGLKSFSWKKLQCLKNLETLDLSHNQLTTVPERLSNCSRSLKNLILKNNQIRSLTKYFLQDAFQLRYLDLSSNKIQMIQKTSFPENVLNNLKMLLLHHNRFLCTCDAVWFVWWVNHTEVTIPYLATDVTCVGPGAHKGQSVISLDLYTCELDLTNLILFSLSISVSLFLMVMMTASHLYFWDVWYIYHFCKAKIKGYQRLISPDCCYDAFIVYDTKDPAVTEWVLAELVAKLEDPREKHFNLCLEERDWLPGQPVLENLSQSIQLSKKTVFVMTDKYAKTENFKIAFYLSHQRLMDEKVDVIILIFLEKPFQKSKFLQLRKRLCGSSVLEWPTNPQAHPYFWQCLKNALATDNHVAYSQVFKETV
Kind of test: Agonistic activity on human TLR7 in HEK-Blue hTLR7 cell line (QUANTI-Blue reporter). Format: cell-based. Particulars: HEK-Blue hTLR7 cells, 16-22 h incubation, absorption at 630 nm; read-out: EC50 value of the agonistic effect on human TLR7. As for the experimental part: The TLR7 agonistic activity of the compounds of the invention in HEK-Blue™ hTLR7 cell line with stable expression of human TLR7 were assayed using the following method: • 1. Weighed the test compounds and prepared stock solutions with DMSO (Sigma) at a concentration of 10 mM. […] The highest concentration was 1 mM. • 2. The test compounds and DMSO control were diluted 10-fold in DPBS buffer (Gibco) and then added to a 96-well cell culture plate (Corning) at a volume of 20 μL/well. • 3. HEK-Blue™ hTLR7 cells (Invivogen) were digested with cell separation solution (Gibco), and counted (TC-20 cell counter, Bio-rad). Cells were diluted to 4.4E5/ml using DMEM cell medium (Gibco). Added the cells to a 96-well cell culture plate at a volume of 180 μL/well. The cells were incubated for 16-22 h at 37° C. in a 5% CO2 incubator. • 4. Prepared QUANTI-Blue detection reagent (Invivogen), and added into a new 96-well plate at a volume of 180 μL/well. Twenty μL of cell culture supernatant was transferred from the cell culture plate and added to the 96-well plate and incubated at 37° C. for 1-3 hours. • 5. Neo2 multifunctional microplate reader (Bio-Tek) was used to measure the optical absorption at 630 nm, and the EC50 was calculated by GraphPad Prism.
The agonistic effect of the compounds of the invention on human TLR7 can be determined by the above experiments, and the measured EC50 value is shown in Table 1.

The test system of test [1] is human peripheral blood mononuclear cells. Kind of test: IFN-α production by human peripheral blood mononuclear cells stimulated by compounds (ELISA). Format: cell-based. Particulars: human PBMC, about 8 hours, supernatant ELISA. As for the experimental part: • 1. The frozen human peripheral blood mononuclear cells (Miaotong Biotechnology Co., LTD., PB010C) were dissolved in water bath at 37° C. After counting, the cells were diluted to 0.2M/mL, and 150 uL/well was added to the 96-well cell culture plate, and the cells were incubated for 40 hours. • 2. The test compounds were weighed and prepared with DMSO at a concentration of 10 mM. DMSO was used to dilute the test compounds by a 10-fold gradient, with a total of four concentration gradients. The highest concentration was 400 μM. • 3. The test compounds, DMSO control and positive controls were diluted 100 times with cell culture medium (RPMI 1640 cell medium, Gibco), and 50 μL was added to 96-well cell culture plates. • 4. The cells were incubated at 37° C. for about 8 hours, and the supernatant was collected by centrifugation. The level of IFN-α in the supernatant was determined by ELISA (IFN-α ELISA kit, Dakewe). • 5. Light absorption at 450 nm was measured by microplate reader, and IFN-α level in culture supernatant was quantified according to the standard curve.
For orientation: ELISA stands for enzyme-linked immunosorbent assay.

With `CC(C)N1CCc2c3cc(cc2C1)Cn1c(=O)[nH]c2c(N)nc(nc21)OCCCCC3` [Compound I-35], the half-maximal effective concentration (EC50) (commonly the concentration at which the effect is half-maximal) on human TLR7 was found to be 10 nM. The “IFN-α concentration post stimulation” value in test [1] (compound 0.1 nM) was determined as 251 pg/mL; in test [1] (compound 1 nM) it was 2767 pg/mL; in test [1] (compound 10 nM) it was 2776 pg/mL. The corresponding values for `Nc1nc2nc3c1[nH]c(=O)n3Cc1cc3c(c(c1)OCCCCO2)CCN(C1CCC1)C3` [Compound I-60] are 14 nM, 12 pg/mL, 2412 pg/mL and 3127 pg/mL. The corresponding values for `CC(C)(C(=O)O)N1CCc2c3cc(cc2C1)Cn1c(=O)[nH]c2c(N)nc(nc21)OCCCCC3` [Compound I-26] are 105 nM, 12 pg/mL, 11 pg/mL and 96 pg/mL. The corresponding values for `COCCN1CCc2c3cc(cc2C1)Cn1c(=O)[nH]c2c(N)nc(nc21)OCCCCC3` [Compound I-48] are 11 nM, 13 pg/mL, 2431 pg/mL and 2784 pg/mL. Turning to `Nc1nc2nc3c1[nH]c(=O)n3Cc1ccc(Oc3ccc(CNC4CC4)cc3)c(c1)C/C=C\CCO2` [Reference 2, reference compound], on human TLR7, the EC50 was found to be 31 nM. Besides, the results for the “IFN-α concentration post stimulation” value in test [1] (compound 0.1 nM), in test [1] (compound 1 nM) and in test [1] (compound 10 nM) were 8 pg/mL, 161 pg/mL and 558 pg/mL, respectively. The corresponding values for `Nc1nc2nc3c1[nH]c(=O)n3Cc1cc(c3c(c1)CCN(C1CCC1)C3)CCCCCO2` [Compound I-51] are 6 nM, 530 pg/mL, 2759 pg/mL and 2472 pg/mL. For `Nc1nc2nc3c1[nH]c(=O)n3Cc1ccc(OC3CCNCC3)c(c1)C/C=C/CCO2` [Reference 1, reference compound], in that order: 15 nM, 9 pg/mL, 74 pg/mL and 159 pg/mL.

For the compound `Nc1nc2nc3c1[nH]c(=O)n3Cc1cc(c3c(c1)C(=O)N(CC(=O)O)C3)CCCCCO2` [Compound I-3], the EC50 on human TLR7 is 10 nM. The same measure, in the same setting: under `CC(C)N1CCc2cc3cc(c2C1)OCCCCOc1nc(N)c2[nH]c(=O)n(c2n1)C3` [Compound I-64] stands 11 nM. For `Nc1nc2nc3c1[nH]c(=O)n3Cc1cc(c3c(c1)CN(C1CCC1)CC3)CCCCCO2` [Compound I-37], the EC50 on human TLR7 was found to be 10 nM. Also, the “IFN-α concentration post stimulation” value came out at 428 pg/mL in test [1] (compound 0.1 nM), 1973 pg/mL in test [1] (compound 1 nM) and 2078 pg/mL in test [1] (compound 10 nM). As for `Nc1nc2nc3c1[nH]c(=O)n3Cc1cc(c3c(c1)CC(C(=O)O)CO3)CCCCCO2` (stereo not shown) [Compound I-19], on human TLR7, the EC50 was found to be 165 nM.

Take `Nc1nc2nc3c1[nH]c(=O)n3Cc1cc(c3c(c1)CN(CCO)CC3)CCCCCO2` [Compound I-38]: the EC50 at human TLR7 came to 47 nM.

Turning to `Nc1nc2nc3c1[nH]c(=O)n3Cc1cc(c3c(c1)CC(C(=O)O)CO3)CC=CCCO2` (stereo not shown) [Compound I-18], the EC50 at human TLR7 turned out to be 20 nM. Still for that read-out and setting: the figure for `Nc1nc2nc3c1[nH]c(=O)n3Cc1cc(c3c(c1)CNCC3)C/C=C\CCO2` [Compound I-8] is 15 nM; for `Nc1nc2nc3c1[nH]c(=O)n3Cc1cc(c3c(c1)CN(C(=O)c1ccccc1)CC3)CC=CCCO2` [Compound I-44] it is 38 nM.

For `Nc1nc2nc3c1[nH]c(=O)n3Cc1cc(c3c(c1)CC(C(=O)O)O3)CCCCCO2` (stereo not shown) [Compound I-17], the EC50 at human TLR7 is 167 nM.

For `Nc1nc2nc3c1[nH]c(=O)n3Cc1cc(c3c(c1)CCN(CC(=O)O)C3)CC=CCCO2` [Compound I-24], at human TLR7, the EC50 was 84 nM. The same measure, in the same setting: the figure for `COC(=O)CN1CCc2c3cc(cc2C1)Cn1c(=O)[nH]c2c(N)nc(nc21)OCCCCC3` [Compound I-49] is 73 nM; for `Nc1nc2nc3c1[nH]c(=O)n3Cc1cc3c(c(c1)OCCCO2)CCNC3` [Compound I-30] it is 75 nM.

Take `CC(C)(CN1CCc2c3cc(cc2C1)Cn1c(=O)[nH]c2c(N)nc(nc21)OCCCCC3)C(=O)O` [Compound I-27]: on human TLR7, the EC50 amounted to 76 nM.

For `Nc1nc2nc3c1[nH]c(=O)n3Cc1cc(c3c(c1)CN(S(=O)(=O)c1ccccc1)CC3)CC=CCCO2` [Compound I-45], on human TLR7, the EC50 stood at 579 nM. Turning to `CCCCOc1nc(N)c2c(n1)N(Cc1cccc(CN3CCCC3)c1)CC(=O)N2` [Vesatolimod, reference compound], the “IFN-α concentration post stimulation” value in test [1] (compound 1 nM) and in test [1] (compound 10 nM) was 12 pg/mL throughout. For `CN1Cc2c3cc(cc2C1=O)Cn1c(=O)[nH]c2c(N)nc(nc21)OCCCCC3` [Compound I-5], the EC50 at human TLR7 stood at 113 nM.

As for `CC(C)N1CCc2c3cc(cc2C1)Cn1c(=O)[nH]c2c(N)nc(nc21)S(=O)(=O)CCCCC3` [Compound I-63], the EC50 at human TLR7 was 31 nM.

With `CN1CCc2c3cc(cc2C1)Cn1c(=O)[nH]c2c(N)nc(nc21)OCCCCC3` [Compound I-36], the EC50 at human TLR7 was determined as 20 nM.

Consider `Nc1nc2nc3c1[nH]c(=O)n3Cc1cc(c3c(c1)CCN(CC(=O)O)C3)CCCCCO2` [Compound I-25], for which the EC50 at human TLR7 is 95 nM.

In the case of `Nc1nc2nc3c1[nH]c(=O)n3Cc1cc(c3c(c1)CN(CC(=O)O)CC3)CCCCCO2` [Compound I-23], at human TLR7, the EC50 worked out at 79 nM. The same measure, in the same setting: under `Nc1nc2nc3c1[nH]c(=O)n3Cc1cc(c3c(c1)CN(C1CCOCC1)CC3)CCCCCO2` [Compound I-41] stands 22 nM. With `Nc1nc2nc3c1[nH]c(=O)n3Cc1cc(c3c(c1)CN(CC(F)(F)F)CC3)CCCCCO2` [Compound I-39], at human TLR7, the EC50 is 3150 nM.

On to `Nc1nc2cc3c1[nH]c(=O)n3Cc1cc(c3c(c1)CNCC3)C/C=C/CCO2` [Compound I-34], for which, at human TLR7, the EC50 was 132 nM. Still for that read-out and setting: the figure for `Nc1nc2nc3c1[nH]c(=O)n3Cc1cc(c3c(c1)CNCC3)CCCCCS2(=O)=O` [Compound I-61] is 13 nM; for `Nc1nc2nc3c1[nH]c(=O)n3Cc1cc(c3c(c1)CCNC3)C/C=C\CCO2` [Compound I-11] it is 6 nM. With `Nc1nc2nc3c1[nH]c(=O)n3Cc1cc3c(c(c1)OC[C@@H]1C[C@H]1CO2)CCNC3` [Compound I-32], at human TLR7, the EC50 is 31 nM.

Source of the values: patent US20240124486A1, “MACROCYCLIC TLR7 AGONIST, PREPARATION METHOD THEREFOR, PHARMACEUTICAL COMPOSITION AND USE THEREOF” (SHANGHAI VISONPHARMA CO., LTD., priority 2020, published 2024).
